This note sets out measurements from patent US12077513B2, “Process route of compound of formula (IV), crystal form and preparation method therefor” (SHANDONG DANHONG PHARMACEUTICAL CO., LTD., priority 2018, dated 2024).

Data set [1] can be described thus: Solid stability test, crystal form characterized by XRPD. The data set is classed as physicochemical. Here is the method: An electronic balance was used to accurately weigh 60 mg sample of crystal form B of compound (IV) (3 samples in parallel for each stability test condition). The samples were placed in a dry and clean 5 mL beaker and spread into a thin layer. The aluminum foil was pierced with holes and placed on the beaker, fixed with rubber bands. The beaker was placed in tbc environment of various stability test conditions and remained for sampling at investigation time. The samples were investigated at 60° C. (5 days, 10 days), 25° C./92.5% RH (5 days, 10 days), 40° C./75% RH (one month, two months, three months), 60° C./75% RH (one month, two months) and light (10 days) conditions. X-ray powder diffraction (XRPD) was used to characterize the solid under various conditions.

For data set [2], the target named is Human recombinant VAP-1/SSAO enzyme (Homo sapiens (Human), UniProt Q16853). As to the kind of experiment: Human VAP-1 enzyme activity assay (Amplex Red Monoamine Oxidase Kit). The data set is classed as biochemical. Conditions: for Inhibitory activity against human recombinant VAP-1/SSAO enzyme (conclusion in words): in vitro. As for the experimental part: Human VAP-1 Enzyme Activity Assay:
Amplex® Red Monoamine Oxidase Kit (Invitrogen #A12214) was used to determine the inhibitory effects of the sample on VAP-1 enzyme activity. 100 nL Test compound (the solvent was DMSO) that had been gradiently diluted was added to a 384-well plate. 25 μL 10 nM VAP-1 enzyme solution was added, and the solution was incubated at room temperature for 30 minutes. The substrate mixture which had been added […] (200 μM Amplex Red, 1 U/mL HRP, 1 mM Benzylamine) was incubated at room temperature for 60 minutes. After the incubation, the fluorescence signal was read with a microplate reader Envision (excitation light wavelength 530-560 nm, emission light wavelength 590 nm). The fluorescence signal value after removing the background signal was analyzed with Prism software. The IC50 of the sample to the VAP-1 enzyme was calculated.

For the next data set, the target named is VAP-1/SSAO cell (Homo sapiens (Human), UniProt Q16853). The data set can be described thus: VAP-1 cell activity assay (HUVEC or CHO cells transfected with VAP-1/pCDNA (3.1) plasmid, Amplex Red). To be noted: for Inhibitory activity against VAP-1/SSAO cells (conclusion in words): in vitro. The data set is classed as cell-based. As for the experimental part:
Amplex® Red Monoamine Oxidase Kit (Invitrogen #A12214) was used to determine the inhibitory effect of the sample on VAP-1 enzyme activity.
The HUVEC or CHO cells were plated onto a 6-well plate at a density of 0.8M/well, placed in a 37° C., 5% CO2 incubator for 24 hours, and then transfected with Lipo2000 reagent and VAP-1/pCDNA (3.1) plasmid. The medium was changed after 5 h (Lipo2000 is toxic to cells). After 24 h, the cells digested and plated into a 384-well plate at a density of 25 μl, 10000 cells/well, 6-7 h, and the cell medium was changed to the medium without FBS and the cell plate was placed in a 37° C. 5% CO2 incubator overnight.
• 1) Compound dilution: 4-fold serial dilution with 100% DMSO and diluted at 10 points. The initial concentration of the test compound was 0.5 mM (final concentration was […]); ECHO was used to transfer 100 nL of the compound solution to a 384-well cell detection plate. Negative control well: 100 nL DMSO; background control well: 100 nL DMSO+25 μL medium. • 2) Reaction was kept for 30 minutes at room temperature and protected from light. • 3) Amplex Red reagent+HRP+benzylamine substrate working solution preparation: • Amplex Red reagent+HRP+benzylamine substrate working solution (200 μM Amplex Red reagent+1 U/mL HRP+1 mM benzylamine): 45 μL of 20 mM Amplex Red reagent mother liquor, 22.5 μL of 200 U/mL horseradish peroxidase (HRP) mother liquor and 45 μL of 100 mM benzylamine were added to 4.3875 mL of 1× reaction buffer. • 4) After 30 minutes, 25 μL of the substrate working solution was added to a 384-well plate. […]

Setting [3] is: listed as crystal form B of the compound of formula (IV).

Chain of Human recombinant VAP-1/SSAO enzyme (Q16853 whole entry): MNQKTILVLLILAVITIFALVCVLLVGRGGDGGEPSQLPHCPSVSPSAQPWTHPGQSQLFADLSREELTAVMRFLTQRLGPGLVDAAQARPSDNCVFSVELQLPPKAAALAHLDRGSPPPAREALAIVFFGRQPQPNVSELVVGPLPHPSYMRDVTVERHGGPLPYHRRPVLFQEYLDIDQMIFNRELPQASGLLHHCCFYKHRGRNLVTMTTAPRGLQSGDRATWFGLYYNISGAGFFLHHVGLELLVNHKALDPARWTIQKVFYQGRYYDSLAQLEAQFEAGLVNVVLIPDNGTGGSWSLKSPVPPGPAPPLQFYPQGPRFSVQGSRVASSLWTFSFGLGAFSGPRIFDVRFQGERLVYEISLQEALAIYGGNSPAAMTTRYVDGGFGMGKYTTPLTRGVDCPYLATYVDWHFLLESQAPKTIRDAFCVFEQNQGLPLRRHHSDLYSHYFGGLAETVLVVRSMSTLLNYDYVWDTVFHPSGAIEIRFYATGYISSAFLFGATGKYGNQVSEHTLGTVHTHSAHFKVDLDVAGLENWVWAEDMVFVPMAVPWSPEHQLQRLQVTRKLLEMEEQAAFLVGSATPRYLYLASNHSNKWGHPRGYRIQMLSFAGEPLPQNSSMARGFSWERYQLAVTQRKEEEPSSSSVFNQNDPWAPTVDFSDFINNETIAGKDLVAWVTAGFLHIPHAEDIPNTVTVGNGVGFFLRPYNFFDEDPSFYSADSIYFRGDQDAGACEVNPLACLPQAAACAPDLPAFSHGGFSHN
Chain of VAP-1/SSAO cell (Q16853 whole entry): as above

For `CC(C)n1nc(-c2ccc(OC/C(=C/F)CN)cc2)nc1C1CC1` [Crystal form A], in data set [1], the “Stability (general statement in words)” value was “good stability”.

Turning to `CC(C)n1nc(-c2ccc(OC/C(=C/F)CN)cc2)nc1C1CC1` [Compound of formula (IV)], in data set [2], the “Inhibitory activity against human recombinant VAP-1/SSAO enzyme (conclusion in words)” value is given as “strong inhibitory activity”. Also, on VAP-1/SSAO cell, the “Inhibitory activity against VAP-1/SSAO cells (conclusion in words)” value is “strong inhibitory activity”.

For the compound `CC(C)n1nc(-c2ccc(OC/C(=C/F)CN)cc2)nc1C1CC1`, the IC50 in data set [2] (30 min preincubation, benzylamine substrate, read-out: Human recombinant VAP-1/SSAO enzyme inhibitory activity IC50) is 0.71 ± 0.21 nM; on VAP-1/SSAO cell (VAP-1 transfected HUVEC or CHO cells, read-out: VAP-1/SSAO cell activity assay test IC50), 2.2 ± 1.49 nM. Besides, the “Inhibitory activity against human recombinant VAP-1/SSAO enzyme (conclusion in words)” value in data set [2] (setting [3]) is “strong inhibitory activity”. Also, the “Inhibitory activity against VAP-1/SSAO cells (conclusion in words)” value at VAP-1/SSAO cell (setting [3]) is “strong inhibitory activity”.
